From US7642277B2, “Non-nucleoside reverse transcriptase inhibitors” (Boehringer Ingelheim International GmbH, priority 2002, dated 2010)

Target: T1, HIV-1 RT enzyme (wild type) (Human immunodeficiency virus type 1 group M subtype B, UniProt P04585)
T1 construct: The reverse transcriptase (RT) enzyme assay has been adapted to a 96-well microtiter plate format
Assay: Reverse transcriptase (RT) enzymatic assay (IC50), PicoGreen fluorescence, wild type
Format: biochemical
Details: RT enzymatic assay, wild type; read-out: IC50 WT
Method: Reverse Transcriptase (RT) Assays Enzymatic Assay (IC50)
The enzymatic assay employed is described as follows: The reverse transcriptase (RT) enzyme assay has been adapted to a 96-well microtiter plate format and uses PicoGreen™ as a fluorescent intercalator. More explicitly, the HIV-1 RT enzyme was thawed and appropriately diluted into Tris/HCl 50 mM pH 7.8 containing NaCl 60 mM, MgCl2∘6H2O 2 mM, DTT 6 mM, GSH 2 mM and 0.02% w/v Chaps to give ≈10 nM enzyme. […] The plate was pre-incubated for 15 minutes at room temperature before proceeding to the next step. […] Then the enzymatic reaction was initiated by addition of 20 μL of substrate solution. […] After addition of the substrate cocktail, the plate was covered with a plastic seal and incubated for 50 minutes at 37° C. in a dry incubator. The reaction was then quenched by addition of 5 μL of EDTA 0.5 M. The plate was shaken for 30 seconds at medium speed and incubated for 5 minutes at room temperature. Then 160 μL of PicoGreen™ 1:400 dilution from commercial stock (diluted in Tris 20 mM pH 7.5 with EDTA 1 mM) was added and the plate was shaken for 30 seconds and incubated for 10 minutes at room temperature. […] Each row contained at its extremities a blank and a control well.
Table legend: A=>100; B=100-50; C=<50; NT=not tested

Row | SMILES | IC50
1 | O=C(CSc1nnnn1-c1cccc2ncccc12)Nc1ccccc1[N+](=O)[O-] [Entry 106] | > 100 nM
2 | O=C(CSc1nnnn1Cc1ccc2ccccc2c1)Nc1ccccc1[N+](=O)[O-] [Entry 107] | > 100 nM
3 | COC(=O)c1cccc(-n2nnnc2SCC(=O)Nc2ccccc2[N+](=O)[O-])c1 [Entry 120] | > 100 nM
4 | COc1ccc(-n2nnnc2SCC(=O)Nc2ccccc2[N+](=O)[O-])c(OC)c1 [Entry 131] | > 100 nM
5 | Cc1ccccc1-c1ccc(-n2nnnc2SCC(=O)Nc2ccccc2[N+](=O)[O-])c(C)c1 [Entry 132] | > 100 nM
6 | Cc1cccc(C)c1-n1nnnc1SCC(=O)Nc1ccccc1[N+](=O)[O-] [Entry 138] | > 100 nM
7 | CCc1ccccc1NC(=O)CSc1nnnn1-c1cccc2ccccc12 [Entry 203] | > 100 nM
8 | CC(C)c1ccccc1NC(=O)CSc1nnnn1-c1cccc2ccccc12 [Entry 204] | > 100 nM
9 | O=C(CSc1nnnn1-c1cccc2ccccc12)Nc1ccccc1Cc1ccccc1 [Entry 205] | > 100 nM
10 | O=C(CSc1nnnn1-c1cccc2ccccc12)Nc1ccccc1-c1ccccc1 [Entry 206] | > 100 nM
11 | O=C(CSc1nnnn1-c1cccc2ccccc12)Nc1ccccc1F [Entry 207] | > 100 nM
12 | COc1ccccc1NC(=O)CSc1nnnn1-c1cccc2ccccc12 [Entry 212] | > 100 nM
13 | CCOc1ccccc1NC(=O)CSc1nnnn1-c1cccc2ccccc12 [Entry 213] | > 100 nM
14 | O=C(CSc1nnnn1-c1cccc2ccccc12)Nc1ccccc1C(F)(F)F [Entry 214] | > 100 nM
15 | CC(=O)c1ccccc1NC(=O)CSc1nnnn1-c1cccc2ccccc12 [Entry 215] | > 100 nM
16 | COC(=O)c1ccccc1NC(=O)CSc1nnnn1-c1cccc2ccccc12 [Entry 216] | > 100 nM
17 | NC(=O)c1ccccc1NC(=O)CSc1nnnn1-c1cccc2ccccc12 [Entry 217] | > 100 nM
18 | CSc1ccccc1NC(=O)CSc1nnnn1-c1cccc2ccccc12 [Entry 218] | > 100 nM
19 | NS(=O)(=O)c1ccccc1NC(=O)CSc1nnnn1-c1cccc2ccccc12 [Entry 220] | > 100 nM
20 | O=C(CSc1nnnn1-c1cccc2ccccc12)Nc1ccccc1N1CCOCC1 [Entry 221] | > 100 nM
21 | O=C(CSc1nnnn1-c1cccc2ccccc12)Nc1ccccc1-n1cccc1 [Entry 222] | > 100 nM
22 | O=C(CSc1nnnn1-c1cccc2ccccc12)Nc1cccc([N+](=O)[O-])c1 [Entry 223] | > 100 nM

Row | SMILES | IC50
23 | COc1ccc(NC(=O)CSc2nnnn2-c2cccc3ccccc23)cc1 [Entry 224] | > 100 nM
24 | O=C(CSc1nnnn1-c1cccc2ccccc12)Nc1ccc(O)cc1 [Entry 225] | > 100 nM
25 | O=C(CSc1nnnn1-c1cccc2ccccc12)Nc1ccc(-c2ccccc2)cc1 [Entry 226] | > 100 nM
26 | O=C(CSc1nnnn1-c1cccc2ccccc12)Nc1ccc([N+](=O)[O-])cc1 [Entry 227] | > 100 nM
27 | Cc1cccc(NC(=O)CSc2nnnn2-c2cccc3ccccc23)c1C [Entry 228] | > 100 nM
28 | O=C(CSc1nnnn1-c1cccc2ccccc12)Nc1cccc2c1CCCC2 [Entry 229] | > 100 nM
29 | O=C(CSc1nnnn1-c1cccc2ccccc12)Nc1cccc(Cl)c1F [Entry 232] | > 100 nM
30 | Cc1ccc(NC(=O)CSc2nnnn2-c2cccc3ccccc23)c(C)c1 [Entry 233] | > 100 nM
31 | O=C(CSc1nnnn1-c1cccc2ccccc12)Nc1c(Cl)cccc1Cl [Entry 241] | > 100 nM
32 | COc1cc(NC(=O)CSc2nnnn2-c2cccc3ccccc23)cc(OC)c1 [Entry 242] | > 100 nM
33 | O=C(CSc1nnnn1-c1cccc2ccccc12)Nc1ccccn1 [Entry 243] | > 100 nM
34 | O=C(CSc1nnnn1-c1cccc2ccccc12)Nc1cccnc1 [Entry 244] | > 100 nM
35 | O=C(CSc1nnnn1-c1cccc2ccccc12)Nc1ccncc1 [Entry 245] | > 100 nM
36 | O=C(CNc1nnnn1-c1cccc2ccccc12)Nc1ccccc1[N+](=O)[O-] [Entry 303] | > 100 nM
37 | O=C(CCCc1nnnn1-c1cccc2ccccc12)Nc1ccccc1Cl [Entry 305] | > 100 nM
38 | O=C(CCCc1nnnn1-c1cccc2ccccc12)Nc1ccccc1[N+](=O)[O-] [Entry 306] | > 100 nM
39 | O=C(C=Cc1nnnn1-c1cccc2ccccc12)Nc1ccccc1[N+](=O)[O-] [Entry 307] | > 100 nM
40 | O=[N+]([O-])c1ccccc1C(O)CSc1nnnn1-c1cccc2ccccc12 (stereo not drawn) [Entry 309] | > 100 nM
41 | O=[N+]([O-])c1ccccc1CCSc1nnnn1-c1cccc2ccccc12 [Entry 310] | > 100 nM
42 | Clc1ccccc1CCCSc1nnnn1-c1cccc2ccccc12 [Entry 311] | > 100 nM
43 | O=[N+]([O-])c1ccccc1/C=C/CSc1nnnn1-c1cccc2ccccc12 [Entry 312] | > 100 nM
44 | Clc1ccccc1/C=C/CSc1nnnn1-c1cccc2ccccc12 [Entry 313] | > 100 nM

Row | SMILES | IC50
45 | OC(CSc1nnnn1-c1cccc2ccccc12)C(O)c1ccccc1Cl (stereo not drawn) [Entry 319] | > 100 nM
46 | O=[N+]([O-])c1ccccc1OCCSc1nnnn1-c1cccc2ccccc12 [Entry 320] | > 100 nM
47 | Clc1ccccc1OCCSc1nnnn1-c1cccc2ccccc12 [Entry 321] | > 100 nM
48 | O=C(OCCSc1nnnn1-c1cccc2ccccc12)c1ccccc1[N+](=O)[O-] [Entry 322] | > 100 nM
49 | O=C(OCCSc1nnnn1-c1cccc2ccccc12)c1ccccc1Cl [Entry 323] | > 100 nM
50 | Clc1ccccc1OCCCSc1nnnn1-c1cccc2ccccc12 [Entry 324] | > 100 nM
51 | O=[N+]([O-])c1ccccc1NCCSc1nnnn1-c1cccc2ccccc12 [Entry 326] | > 100 nM
52 | CN(CCSc1nnnn1-c1cccc2ccccc12)c1ccccc1[N+](=O)[O-] [Entry 327] | > 100 nM
53 | O=[N+]([O-])c1ccccc1CNCCSc1nnnn1-c1cccc2ccccc12 [Entry 328] | > 100 nM
54 | O=[N+]([O-])c1ccccc1NCCCSc1nnnn1-c1cccc2ccccc12 [Entry 329] | > 100 nM
55 | O=C(NCCSc1nnnn1-c1cccc2ccccc12)c1ccccc1Cl [Entry 331] | > 100 nM
56 | CN(CCSc1nnnn1-c1cccc2ccccc12)C(=O)c1ccccc1Cl [Entry 332] | > 100 nM
57 | O=C(NCCSc1nnnn1-c1cccc2ccccc12)Nc1ccccc1[N+](=O)[O-] [Entry 333] | > 100 nM
58 | O=C(NCCSc1nnnn1-c1cccc2ccccc12)Nc1ccccc1Cl [Entry 334] | > 100 nM
59 | O=C(CSCc1nnnn1-c1cccc2ccccc12)Nc1ccccc1[N+](=O)[O-] [Entry 335] | > 100 nM
60 | O=C(COCc1nnnn1-c1cccc2ccccc12)Nc1ccccc1[N+](=O)[O-] [Entry 336] | > 100 nM
61 | O=C(CNCc1nnnn1-c1cccc2ccccc12)Nc1ccccc1[N+](=O)[O-] [Entry 337] | > 100 nM
62 | CN(CC(=O)Nc1ccccc1[N+](=O)[O-])Cc1nnnn1-c1cccc2ccccc12 [Entry 338] | > 100 nM
63 | c1ccc2c(-n3nnnc3SCc3nc4ccccc4[nH]3)cccc2c1 [Entry 339] | > 100 nM
64 | O=[N+]([O-])c1cccc2[nH]c(CSc3nnnn3-c3cccc4ccccc34)nc12 [Entry 340] | > 100 nM
65 | O=C1c2ccccc2C(=O)N1CCSc1nnnn1-c1cccc2ccccc12 [Entry 341] | > 100 nM
66 | CN(C(=O)CSc1nnnn1-c1cccc2ccccc12)c1ccccc1Cl [Entry 342] | > 100 nM
